# PubChem BioAssay AID1919010 (Molecular Pharmacology Branch, DTP, NCI, 2023)
# Where “and” joins values, the source holds several entries; their conditions need not be identical. Identical values can stand only once.
# System: Hs578T complex spheroid growth, percent test/control
# Test: Anticancer human tumor Hs578T cell line growth inhibition [AhR];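 further: luminescent viability signal as a proxy for spheroid growth; spheroids exposed to agents for one week after three days of growth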
# Conditions: for IC50: curve of first compound; for viability, T/C: stronger effect = lower value
# How it was run: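 Spheroids combined tumor cells with HUVEC endothelial cells and human MSCs as stroma. AhR antagonists were paired with standard or investigational drugs, each dosed in half-log steps down from near clinical Cmax, or from 10 microM where Cmax was unknown.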
# [1] = second compound 0.1 µM, first compound 0.0316 µM
# [2] = second compound 0.1 µM, first compound 0.1 µM
# [3] = second compound 0.1 µM, first compound 0.316 µM
# [4] = second compound 0.1 µM, first compound 1 µM
# [5] = second compound 0.1 µM, first compound 3.16 µM
# [6] = second compound 0.1 µM, first compound 10 µM
# [7] = second compound 0.316 µM, first compound 0.0316 µM
# [8] = second compound 0.316 µM, first compound 0.1 µM
# [9] = second compound 0.316 µM, first compound 0.316 µM
# [10] = second compound 0.316 µM, first compound 1 µM
# [11] = second compound 0.316 µM, first compound 3.16 µM
# [12] = second compound 0.316 µM, first compound 10 µM
# [13] = second compound 1 µM, first compound 0.0316 µM
# [14] = second compound 1 µM, first compound 0.1 µM
# [15] = second compound 1 µM, first compound 0.316 µM
# [16] = second compound 1 µM, first compound 1 µM
# [17] = second compound 1 µM, first compound 3.16 µM
# [18] = second compound 1 µM, first compound 10 µM
# [19] = second compound 3.16 µM, first compound 0.0316 µM
# [20] = second compound 3.16 µM, first compound 0.1 µM
# [21] = second compound 3.16 µM, first compound 0.316 µM
# [22] = second compound 3.16 µM, first compound 1 µM
# [23] = second compound 3.16 µM, first compound 3.16 µM
# [24] = second compound 3.16 µM, first compound 10 µM
# [25] = second compound 10 µM, first compound 0.0316 µM
# [26] = second compound 10 µM, first compound 0.1 µM
# [27] = second compound 10 µM, first compound 0.316 µM
# [28] = second compound 10 µM, first compound 1 µM
# [29] = second compound 10 µM, first compound 3.16 µM
# [30] = second compound 10 µM, first compound 10 µM
smiles,measurement,setting,value
CCN(c1cc(-c2ccc(CN3CCOCC3)cc2)cc(C(=O)NCc2c(C)cc(C)[nH]c2=O)c1C)C1CCOCC1 + Cc1ccccc1N=Nc1ccc(NC(=O)c2ccnn2C)c(C)c1,IC50,second compound 0.1 µM,> 3 µM
same,IC50,second compound 0.316 µM,> 3 µM
same,IC50,second compound 1 µM,> 3 µM
same,IC50,second compound 3.16 µM,> 3 µM
same,IC50,second compound 10 µM,> 3 µM
same,"viability, T/C","second compound 0.1 µM, first compound 0.00949 µM",97.5%
same,"viability, T/C","second compound 0.1 µM, first compound 0.03 µM",103%
same,"viability, T/C","second compound 0.1 µM, first compound 0.0949 µM",94.1%
same,"viability, T/C","second compound 0.1 µM, first compound 0.3 µM",99.4%
same,"viability, T/C","second compound 0.1 µM, first compound 0.949 µM",94.4%
same,"viability, T/C","second compound 0.1 µM, first compound 3 µM",93%
same,"viability, T/C","second compound 0.316 µM, first compound 0.00949 µM",106%
same,"viability, T/C","second compound 0.316 µM, first compound 0.03 µM",107%
same,"viability, T/C","second compound 0.316 µM, first compound 0.0949 µM",104%
same,"viability, T/C","second compound 0.316 µM, first compound 0.3 µM",111%
same,"viability, T/C","second compound 0.316 µM, first compound 0.949 µM",108%
same,"viability, T/C","second compound 0.316 µM, first compound 3 µM",93.8%
same,"viability, T/C","second compound 1 µM, first compound 0.00949 µM",99.9%
same,"viability, T/C","second compound 1 µM, first compound 0.03 µM",106%
same,"viability, T/C","second compound 1 µM, first compound 0.0949 µM",104%
same,"viability, T/C","second compound 1 µM, first compound 0.3 µM",99.7%
same,"viability, T/C","second compound 1 µM, first compound 0.949 µM",102%
same,"viability, T/C","second compound 1 µM, first compound 3 µM",94.9%
same,"viability, T/C","second compound 3.16 µM, first compound 0.00949 µM",95.3%
same,"viability, T/C","second compound 3.16 µM, first compound 0.03 µM",88%
same,"viability, T/C","second compound 3.16 µM, first compound 0.0949 µM",98.6%
same,"viability, T/C","second compound 3.16 µM, first compound 0.3 µM",83.2%
same,"viability, T/C","second compound 3.16 µM, first compound 0.949 µM",89.8%
same,"viability, T/C","second compound 3.16 µM, first compound 3 µM",82.7%
same,"viability, T/C","second compound 10 µM, first compound 0.00949 µM",63.9%
same,"viability, T/C","second compound 10 µM, first compound 0.03 µM",67.5%
same,"viability, T/C","second compound 10 µM, first compound 0.0949 µM",74%
same,"viability, T/C","second compound 10 µM, first compound 0.3 µM",66.8%
same,"viability, T/C","second compound 10 µM, first compound 0.949 µM",64%
same,"viability, T/C","second compound 10 µM, first compound 3 µM",67%
Nc1ccn(C2OC(CO)C(O)C2(F)F)c(=O)n1 (stereo unspecified),"viability, T/C",compound 0.0316 µM,47.9% and 47.2% and 52.3%
same,"viability, T/C",compound 0.1 µM,58.5% and 48.9% and 52.8%
same,"viability, T/C",compound 0.316 µM,58.5% and 51% and 51.5%
same,"viability, T/C",compound 1 µM,52.4% and 51.2% and 50.9%
same,"viability, T/C",compound 3.16 µM,50.7% and 50.1% and 51.2%
same,"viability, T/C",compound 10 µM,56.5% and 43.3% and 49%
CC1(C)CCC(CN2CCN(c3ccc(C(=O)NS(=O)(=O)c4ccc(NCC5CCOCC5)c([N+](=O)[O-])c4)c(Oc4cnc5[nH]ccc5c4)c3)CC2)=C(c2ccc(Cl)cc2)C1 + CC(CO)NC(=O)c1cc(-c2ccc(Cl)cc2)nn(-c2cnn(C)c2)c1=O,IC50,second compound 0.1 µM,> 10 µM
same,IC50,second compound 0.316 µM,> 10 µM
same,IC50,second compound 1 µM,> 10 µM
same,IC50,second compound 3.16 µM,> 10 µM
same,IC50,second compound 10 µM,> 10 µM
same,"viability, T/C",[1],109%
same,"viability, T/C",[2],107%
same,"viability, T/C",[3],107%
same,"viability, T/C",[4],101%
same,"viability, T/C",[5],106%
same,"viability, T/C",[6],84.3%
same,"viability, T/C",[7],110%
same,"viability, T/C",[8],99.7%
same,"viability, T/C",[9],110%
same,"viability, T/C",[10],91.2%
same,"viability, T/C",[11],93%
same,"viability, T/C",[12],96.3%
same,"viability, T/C",[13],115%
same,"viability, T/C",[14],122%
same,"viability, T/C",[15],114%
same,"viability, T/C",[16],98.3%
same,"viability, T/C",[17],109%
same,"viability, T/C",[18],80%
same,"viability, T/C",[19],108%
same,"viability, T/C",[20],111%
same,"viability, T/C",[21],110%
same,"viability, T/C",[22],99.7%
same,"viability, T/C",[23],102%
same,"viability, T/C",[24],88.7%
same,"viability, T/C",[25],117%
same,"viability, T/C",[26],96.9%
same,"viability, T/C",[27],79.4%
same,"viability, T/C",[28],86%
same,"viability, T/C",[29],87.1%
same,"viability, T/C",[30],91.8%
CC(C)c1c(-c2ccccc2)nc2c(C#N)c[nH]n2c1=O + Cc1ccccc1N=Nc1ccc(NC(=O)c2ccnn2C)c(C)c1,IC50,second compound 0.1 µM,> 10 µM
same,IC50,second compound 0.316 µM,> 10 µM
same,IC50,second compound 1 µM,> 10 µM
same,IC50,second compound 3.16 µM,> 10 µM
same,IC50,second compound 10 µM,> 10 µM
same,"viability, T/C",[1],102%
same,"viability, T/C",[2],99.4%
same,"viability, T/C",[3],108%
same,"viability, T/C",[4],103%
same,"viability, T/C",[5],91.4%
same,"viability, T/C",[6],100%
same,"viability, T/C",[7],105%
same,"viability, T/C",[8],113%
same,"viability, T/C",[9],119%
same,"viability, T/C",[10],99%
same,"viability, T/C",[11],112%
same,"viability, T/C",[12],104%
same,"viability, T/C",[13],103%
same,"viability, T/C",[14],103%
same,"viability, T/C",[15],106%
same,"viability, T/C",[16],101%
same,"viability, T/C",[17],105%
same,"viability, T/C",[18],96.6%
same,"viability, T/C",[19],96%
same,"viability, T/C",[20],94.7%
same,"viability, T/C",[21],97.1%
same,"viability, T/C",[22],88.1%
same,"viability, T/C",[23],91.1%
same,"viability, T/C",[24],96%
same,"viability, T/C",[25],64.4%
same,"viability, T/C",[26],66%
same,"viability, T/C",[27],70.1%
same,"viability, T/C",[28],71.2%
same,"viability, T/C",[29],69.4%
same,"viability, T/C",[30],67.6%
